According to ChEMBL document CHEMBL1142667, “Modulation of MRP-1-mediated multidrug resistance by indomethacin analogues” (J Med Chem, 2005):
Active and inactive are the calls of the source. No cut-off for these calls is given here.

Columns and labels:
Assay type in all cases: functional, cell-based
Conditions in all cases: Homo sapiens
T98G [1] = assay: Effect of compound (10 uM) on doxorubicin-induced cytotoxicity towards T98G cell line expressing multidrug resistance associated protein 1 (MRP-1); Inactive
T98G [2] = assay: Effect of compound (10 uM) on doxorubicin-induced cytotoxicity towards T98G cell line expressing multidrug resistance associated protein 1 (MRP-1); Very active
T98G [3] = assay: Effect of compound (10 uM) on doxorubicin-induced cytotoxicity towards T98G cell line expressing multidrug resistance associated protein 1 (MRP-1); Active
T98G [4] = assay: Effect of compound (10 uM) on doxorubicin-induced cytotoxicity towards T98G cell line expressing multidrug resistance associated protein 1 (MRP-1); Toxic
T98G [5] = assay: Effect of compound (10 uM) on doxorubicin-induced cytotoxicity towards T98G cell line expressing multidrug resistance associated protein 1 (MRP-1)

Compound: O=C(c1ccc(Cl)cc1)n1c2c(c3cc(S(=O)(=O)O)ccc31)CCCC2
- Effect (T98G [1]): inactive

Compound: COc1ccc2c(c1)c(CCCC(=O)O)c(C)n2C(=O)c1ccc(Cl)cc1
- Effect (T98G [2]): Active

Compound: O=C(c1ccccc1)N1CCc2c(c3cc(S(=O)(=O)O)ccc3n2C(=O)c2ccco2)C1
- Effect (T98G [1]): inactive

Compound: COc1ccc2c(c1)c(CC(=O)O)c(C)n2C(=O)c1ccc(-c2ccccc2)cc1
- Effect (T98G [3]): Active

Compound: Cc1c(CC(=O)O)c2cc(Br)ccc2n1C(=O)c1ccco1
- Effect (T98G [1]): inactive

Compound: COc1ccc2c(c1)c(CCC(=O)O)c(C)n2C(=O)c1ccc(Br)cc1
- Effect (T98G [2]): Active

Compound: Cc1c(Cc2ccccc2)c2cc(S(=O)(=O)O)ccc2n1C(=O)c1ccc(-c2ccccc2)cc1
- Effect (T98G [1]): inactive

Compound: COC(=O)CCc1c(C)n(C(=O)c2ccco2)c2ccc(S(=O)(=O)O)cc12
- Effect (T98G [1]): inactive

Compound: CCc1c(C)n(C(=O)c2ccco2)c2ccc(S(=O)(=O)O)cc12
- Effect (T98G [1]): inactive

Compound: CCCCCCCCCCc1c(C)n(C(=O)c2ccc(Cl)cc2)c2ccc(C(=O)O)cc12
- Effect (T98G [3]): Active

Compound: COc1ccc2c(c1)c(CC(=O)O)c(C)n2C(=O)c1ccccn1
- Effect (T98G [1]): inactive

Compound: O=C(c1ccco1)n1c2c(c3cc(S(=O)(=O)O)ccc31)CSCC2
- Effect (T98G [1]): inactive

Compound: O=C(O)c1ccc2c(c1)c1c(n2C(=O)c2ccc(Cl)cc2)CCSC1
- Effect (T98G [2]): Active

Compound: O=C(c1ccccc1)N1CCc2c(c3cc(S(=O)(=O)O)ccc3n2C(=O)c2ccc(-c3ccccc3)cc2)C1
- Effect (T98G [3]): Active

Compound: O=C(c1ccc(-c2ccccc2)cc1)n1c2c(c3cc(S(=O)(=O)O)ccc31)CCCC2
- Effect (T98G [3]): Active

Compound: COc1ccc2c(c1)c(CCC(=O)O)c(C)n2C(=O)c1ccccn1
- Effect (T98G [1]): inactive

Compound: Cc1c(Cc2ccc(O)cc2)c2cc(S(=O)(=O)O)ccc2n1C(=O)c1ccc(Cl)cc1
- Effect (T98G [3]): Active

Compound: Cc1ccc2c(c1)c(CCCC(=O)O)c(C)n2C(=O)c1ccc(Cl)cc1
- Effect (T98G [2]): Active

Compound: COc1ccc2c(c1)c(CCCC(=O)O)c(C)n2C(=O)c1ccc(N(C)C)cc1
- Effect (T98G [3]): Active

Compound: COc1ccc2c(c1)c(CC(=O)O)c(C)n2C(=O)c1cccs1
- Effect (T98G [3]): Active

Compound: COc1ccc2c(c1)c(CCCC(=O)O)c(C)n2C(=O)c1ccc(Br)cc1
- Effect (T98G [2]): Active

Compound: O=C(c1ccccn1)n1c2c(c3cc(S(=O)(=O)O)ccc31)CSCC2
- Effect (T98G [3]): Active

Compound: O=C(c1ccccn1)n1c2c(c3cc(S(=O)(=O)O)ccc31)CCCC2
- Effect (T98G [3]): Active

Compound: CCCCCCCCCCc1c(C)n(C(=O)c2ccc(-c3ccccc3)cc2)c2ccc(S(=O)(=O)O)cc12
- Effect (T98G [4]): Toxic

Compound: O=C(O)c1ccc2c(c1)c1c(n2C(=O)c2ccc(Cl)cc2)CCCC1
- Effect (T98G [2]): Active

Compound: CN1CCc2c(c3cc(S(=O)(=O)O)ccc3n2C(=O)c2ccc(Cl)cc2)C1
- Effect (T98G [4]): Toxic

Compound: COc1ccc2c(c1)c(CCCC(=O)O)c(C)n2C(=O)c1ccccn1
- Effect (T98G [3]): Active

Compound: Cc1c(Cc2ccccc2)c2cc(S(=O)(=O)O)ccc2n1C(=O)c1ccc(Cl)cc1
- Effect (T98G [1]): inactive

Compound: Cc1ccc2c(c1)c(CCC(=O)O)c(C)n2C(=O)c1ccc(Cl)cc1
- Effect (T98G [2]): Active

Compound: COc1ccc2c(c1)c(CC(=O)O)c(C)n2C(=O)c1ccc(Cl)cc1
- Effect (T98G [3]): Active

Compound: COc1ccc2c(c1)c(CC(=O)O)c(C)n2C(=O)c1ccc(Br)cc1
- Effect (T98G [2]): Active

Compound: Cc1c(CCCC(=O)O)c2cc(S(=O)(=O)O)ccc2n1C(=O)c1ccco1
- Effect (T98G [1]): inactive

Compound: Cc1c(Cc2ccccc2)c2cc(S(=O)(=O)O)ccc2n1C(=O)c1ccco1
- Effect (T98G [4]): Toxic

Compound: CCc1c(C)n(C(=O)c2ccc(Cl)cc2)c2ccc(S(=O)(=O)O)cc12
- Effect (T98G [1]): inactive

Compound: COc1ccc2c(c1)c(CC(=O)O)c(C)n2C(=O)c1ccc(C)cc1
- Effect (T98G [3]): Active

Compound: COc1ccc2c(c1)c(CCCC(=O)O)c(C)n2C(=O)c1cccs1
- Effect (T98G [3]): Active

Compound: O=C(c1ccc(Cl)cc1)n1c2c(c3cc(S(=O)(=O)O)ccc31)CCCCCC2
- Effect (T98G [1]): inactive

Compound: O=C(c1ccc(-c2ccccc2)cc1)n1c2c(c3cc(S(=O)(=O)O)ccc31)CSCC2
- Effect (T98G [3]): Active

Compound: COc1ccc2c(c1)c(CC(=O)O)c(C)n2C(=O)c1ccc(F)cc1
- Effect (T98G [3]): Active

Compound: COC(=O)CCCc1c(C)n(C(=O)c2ccc(Cl)cc2)c2ccc(S(=O)(=O)O)cc12
- Effect (T98G [1]): inactive

Compound: CN1CCc2c(c3cc(S(=O)(=O)O)ccc3n2C(=O)c2ccc(-c3ccccc3)cc2)C1
- Effect (T98G [1]): inactive

Compound: Cc1c(CCCC(=O)O)c2cc(S(=O)(=O)O)ccc2n1C(=O)c1ccc(-c2ccccc2)cc1
- Effect (T98G [1]): inactive

Compound: O=C(c1ccco1)n1c2c(c3cc(S(=O)(=O)O)ccc31)CCCC2
- Effect (T98G [1]): inactive

Compound: COc1ccc2c(c1)c(CC(=O)O)c(C)n2C(=O)c1ccc(N(C)C)cc1
- Effect (T98G [3]): Active

Compound: COc1ccc2c(c1)c(CCC(=O)O)c(C)n2C(=O)c1ccc(-c2ccccc2)cc1
- Effect (T98G [5]): Active

Compound: COc1ccc2c(c1)c(CCC(=O)O)c(C)n2C(=O)c1ccc(Cl)cc1
- Effect (T98G [2]): Active

Compound: COc1ccc2c(c1)c(CCC(=O)O)c(C)n2C(=O)c1ccc(N(C)C)cc1
- Effect (T98G [3]): Active

Compound: CCCCCCCCCCc1c(C)n(C(=O)c2ccco2)c2ccc(S(=O)(=O)O)cc12
- Effect (T98G [1]): inactive

Compound: CCOC(=O)CCCc1c(C)n(C(=O)c2ccc(N(C)C)cc2)c2ccc(OC)cc12
- Effect (T98G [3]): Active

Compound: Cc1c(CCC(=O)O)c2cc(S(=O)(=O)O)ccc2n1C(=O)c1ccco1
- Effect (T98G [1]): inactive

Compound: Cc1c(CCCC(=O)O)c2cc(C(=O)O)ccc2n1C(=O)c1ccc(Cl)cc1
- Effect (T98G [3]): Active

Compound: CCOC(=O)CCc1c(C)n(C(=O)c2cccs2)c2ccc(OC)cc12
- Effect (T98G [4]): Toxic

Compound: CCCCCCCCCCc1c(C)n(C(=O)c2ccc(Cl)cc2)c2ccc(S(=O)(=O)O)cc12
- Effect (T98G [1]): inactive

Compound: COc1ccc2c(c1)c(CC(=O)O)c(C)n2C(=O)c1ccco1
- Effect (T98G [1]): inactive

Compound: O=C(c1ccc(Cl)cc1)n1c2c(c3cc(S(=O)(=O)O)ccc31)CSCC2
- Effect (T98G [1]): inactive

Compound: O=C(c1ccccc1)N1CCc2c(c3cc(S(=O)(=O)O)ccc3n2C(=O)c2ccc(Cl)cc2)C1
- Effect (T98G [3]): Active

Compound: COC(=O)CCCc1c(C)n(C(=O)c2ccco2)c2ccc(S(=O)(=O)O)cc12
- Effect (T98G [1]): inactive

Compound: Cc1c(CCCC(=O)O)c2cc(S(=O)(=O)O)ccc2n1C(=O)c1ccc(Cl)cc1
- Effect (T98G [4]): Toxic

Compound: Cc1c(Cc2ccc(O)cc2)c2cc(S(=O)(=O)O)ccc2n1C(=O)c1ccc(-c2ccccc2)cc1
- Effect (T98G [1]): inactive
